Data set [1] is described as follows: Stability in pH 7.5 buffer assessed as compound recovery at 1 uM by Thioflavin T based fluorescence assay. The data set is classed as physicochemical. As to conditions: read-out: Drug recovery.
A short description of data set [2]: Solubility in 100 mM bistrispropane buffer at pH 6.0 incubated for 18 hrs by UPLC analysis. The format is physicochemical.
Data set [3] in a line: Solubility in 100 mM bistrispropane buffer at pH 8.0 incubated for 18 hrs by UPLC analysis. The format is physicochemical.
Data set [4] relates to Rattus norvegicus. The experiment in a line: Reduction in food intake in Sprague-Dawley rat at 3 nmol/kg measured 0 to 24 hrs post dose relative to control. The format is functional. Also noted: scale not given: the % may be the effect or the level left.
Data set [5] deals with T1, Calcitonin receptor (Homo sapiens, UniProt P30988).
T1 sequence (P30988 whole entry): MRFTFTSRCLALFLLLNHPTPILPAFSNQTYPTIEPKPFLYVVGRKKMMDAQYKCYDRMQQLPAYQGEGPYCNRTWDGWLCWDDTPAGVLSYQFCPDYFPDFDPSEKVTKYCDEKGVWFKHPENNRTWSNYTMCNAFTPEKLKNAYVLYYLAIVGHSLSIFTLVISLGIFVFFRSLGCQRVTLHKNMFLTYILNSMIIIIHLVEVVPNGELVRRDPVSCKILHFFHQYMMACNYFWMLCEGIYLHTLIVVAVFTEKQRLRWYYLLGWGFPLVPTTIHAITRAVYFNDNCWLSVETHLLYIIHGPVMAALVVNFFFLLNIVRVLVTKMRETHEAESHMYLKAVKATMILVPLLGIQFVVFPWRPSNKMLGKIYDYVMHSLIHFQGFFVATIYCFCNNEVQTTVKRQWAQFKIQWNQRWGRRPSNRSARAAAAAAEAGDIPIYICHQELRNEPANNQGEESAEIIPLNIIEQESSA
The experiment in a line: Agonist activity at human calcitonin receptor expressed in BHK570 cells assessed as increase in intracellular cAMP concentration incubated for 3 hrs in presence of 10% FBS by CRE luciferase reporter gene assay. The data set is classed as functional, cell-based. On the technique in general: A reporter such as luciferase makes a cellular process visible.

Data set [6] can be described thus: Stability in pH 7.5 buffer assessed as lag time for fibril formation at 1 uM by Thioflavin T based fluorescence assay. The format is physicochemical. The note with it: pH 7.5, 1 µM.
Data set [7] in a line: Solubility in 100 mM bistrispropane buffer at pH 7.0 incubated for 18 hrs by UPLC analysis. The format is physicochemical.
The nature of data set [8]: Solubility in 100 mM glycylglycine buffer at pH 4.0 incubated for 18 hrs by UPLC analysis. The format is physicochemical.
A short description of data set [9]: Solubility in 100 mM bistrispropane buffer at pH 6.5 incubated for 18 hrs by UPLC analysis. The format is physicochemical.
Data set [10] can be described thus: Solubility in 100 mM bistrispropane buffer at pH 7.5 incubated for 18 hrs by UPLC analysis. The format is physicochemical.
Data set [11] has as its target T2, Amylin receptor AMY3; CALCR/RAMP3 (Homo sapiens, UniProt O60896+P30988).
T2 sequence (P30988 whole entry): T1 sequence (P30988 whole entry)
T2 sequence (O60896 whole entry): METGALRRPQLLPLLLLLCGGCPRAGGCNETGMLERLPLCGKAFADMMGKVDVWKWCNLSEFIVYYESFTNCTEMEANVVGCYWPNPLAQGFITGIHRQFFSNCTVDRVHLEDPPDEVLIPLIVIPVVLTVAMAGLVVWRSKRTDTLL
The experiment in a line: Agonist activity at human amylin receptor expressed in BHK570 cells co-expressing RAMP3 assessed as increase in intracellular cAMP concentration incubated for 3 hrs in presence of 10% FBS by CRE luciferase reporter gene assay. The format is functional, cell-based.

Data set [12] concerns Rattus norvegicus. The experiment in a line: Reduction in food intake in Sprague-Dawley rat at 3 nmol/kg measured 24 to 48 hrs post dose relative to control. The data set is classed as functional. Also noted: scale not given: the % may be the effect or the level left.
Data set [13] can be described thus: Solubility in 100 mM glycylglycine buffer at pH 3.0 incubated for 18 hrs by UPLC analysis. The data set is classed as physicochemical.
In data set [14] the target is T1, Calcitonin receptor. Nature of the data set: Agonist activity at human calcitonin receptor expressed in BHK570 cells assessed as increase in intracellular cAMP concentration incubated for 3 hrs in absence of albumin by CRE luciferase reporter gene assay. The data set is classed as functional, cell-based.
The target of data set [15] is T2, Amylin receptor AMY3; CALCR/RAMP3. The experiment in a line: Agonist activity at human amylin receptor expressed in BHK570 cells co-expressing RAMP3 assessed as increase in intracellular cAMP concentration incubated for 3 hrs in absence of albumin by CRE luciferase reporter gene assay. The format is functional, cell-based.

The structures appear in SMILES notation. Numbered stars: 1 amine (or outer) side, 2 acyl side, 3 side chain; on linkers, the order of the positions; unused ones are H or OH. Peptide text beside a SMILES is read from it. * marks the point of attachment. C20 diacid = O=C(O)CCCCCCCCCCCCCCCCCCC(=O)*; γGlu = O=C(O)[C@H](CCC(=O)[*:2])N[*:1]

As a reminder, the solubility is how much of the substance goes into solution per volume. One may read the EC50 as the concentration at which the effect is half-maximal.

Regarding `CC(C)C[C@H](NC(=O)CNC(=O)[C@H](CO)NC(=O)[C@H](C)NC(=O)CC[C@H](NC(=O)CCCCCCCCCCCCCCCCCCC(=O)O)C(=O)O)C(=O)N[C@@H](CO)C(=O)N[C@H](C(=O)N[C@@H](C)C(=O)N[C@@H](C)C(=O)N[C@@H](CC(C)C)C(=O)NCC(=O)N[C@@H](CCCNC(=N)N)C(=O)N[C@@H](CC(C)C)C(=O)N[C@@H](CO)C(=O)N[C@@H](CCC(N)=O)C(=O)N[C@@H](CCC(=O)O)C(=O)N[C@@H](CC(C)C)C(=O)N[C@@H](Cc1cnc[nH]1)C(=O)N[C@@H](CCC(=O)O)C(=O)N[C@@H](CC(C)C)C(=O)N[C@@H](CCC(=O)O)C(=O)N[C@H](C(=O)N[C@@H](Cc1ccc(O)cc1)C(=O)N1CCC[C@H]1C(=O)N[C@@H](CCCNC(=N)N)C(=O)N[C@H](C(=O)N[C@@H](CCC(=O)O)C(=O)N[C@H](C(=O)NCC(=O)N[C@@H](CO)C(=O)NCC(=O)N[C@H](C(=O)N[C@@H](Cc1ccc(O)cc1)C(N)=O)[C@@H](C)O)[C@@H](C)O)[C@@H](C)O)[C@@H](C)O)[C@@H](C)O` ({C20 diacid-γGlu}-ASGLSTAALGRLSQELHELETYPRTETGSGTY-NH2), the remaining at 1 µM in data set [1] was 100%. The solubility at 18 h in [2], in data set [3], in data set [7], in data set [8], in [9] and in [10] was not below 200 µM in each case. The same compound returned a solubility at 18 h in data set [13] not below 200 µM. In addition, the Activity in data set [4] is given as 27%; in data set [12], 26%. For the same compound, the EC50 in [5] was 0.068 nM; in [11] it was 0.15 nM. Also, in data set [6], the Time is more than 45 h.
Regarding `CC(C)C[C@H](NC(=O)CNC(=O)[C@H](CO)NC(=O)[C@H](C)NC(=O)CC[C@H](NC(=O)CCCCCCCCCCCCCCCCCCC(=O)O)C(=O)O)C(=O)N[C@@H](CO)C(=O)N[C@H](C(=O)N[C@@H](C)C(=O)N[C@H](C(=O)N[C@@H](CC(C)C)C(=O)NCC(=O)N[C@@H](CCCNC(=N)N)C(=O)N[C@@H](CC(C)C)C(=O)N[C@@H](CO)C(=O)N[C@@H](C)C(=O)N[C@@H](CCC(=O)O)C(=O)N[C@@H](CC(C)C)C(=O)N[C@@H](Cc1cnc[nH]1)C(=O)N[C@@H](CCC(=O)O)C(=O)N[C@@H](CC(C)C)C(=O)N[C@@H](C)C(=O)N[C@H](C(=O)N[C@@H](Cc1ccc(O)cc1)C(=O)N1CCC[C@H]1C(=O)N[C@@H](CCCNC(=N)N)C(=O)N[C@H](C(=O)N[C@@H](CCC(=O)O)C(=O)N[C@H](C(=O)NCC(=O)N[C@@H](CO)C(=O)NCC(=O)N[C@H](C(=O)N[C@@H](Cc1ccc(O)cc1)C(N)=O)[C@@H](C)O)[C@@H](C)O)[C@@H](C)O)[C@@H](C)O)C(C)C)[C@@H](C)O` ({C20 diacid-γGlu}-ASGLSTAVLGRLSAELHELATYPRTETGSGTY-NH2), the remaining at 1 µM in [1] amounted to 100%. Moreover, the solubility at 18 h in data set [2], in data set [3], in data set [7], in data set [8], in data set [9] and in [10] was not below 200 µM each time. Also, the solubility at 18 h in data set [13] was not below 200 µM. The Activity in [4] is reported as 26%; in data set [12] it was 28%. Further, the EC50 in data set [5] is 0.053 nM; in data set [11], 0.122 nM; in data set [14] it was 0.07 nM. The Time in data set [6] was more than 45 h.
`CC(C)C[C@H](NC(=O)[C@H](C)NC(=O)[C@H](C)NC(=O)[C@@H](NC(=O)[C@H](CO)NC(=O)[C@H](CC(C)C)NC(=O)[C@H](CCC(=O)O)NC(=O)[C@H](CO)NC(=O)[C@H](C)NC(=O)CC[C@H](NC(=O)CCCCCCCCCCCCCCCCCCC(=O)O)C(=O)O)[C@@H](C)O)C(=O)NCC(=O)N[C@@H](CCCNC(=N)N)C(=O)N[C@@H](CC(C)C)C(=O)N[C@@H](CO)C(=O)N[C@@H](C)C(=O)N[C@@H](CCC(=O)O)C(=O)N[C@@H](CC(C)C)C(=O)N[C@@H](Cc1cnc[nH]1)C(=O)N[C@@H](CCC(=O)O)C(=O)N[C@@H](CC(C)C)C(=O)N[C@@H](C)C(=O)N[C@H](C(=O)N[C@@H](Cc1ccc(O)cc1)C(=O)N1CCC[C@H]1C(=O)N[C@@H](CCCNC(=N)N)C(=O)N[C@H](C(=O)N[C@@H](CCC(=O)O)C(=O)N[C@H](C(=O)NCC(=O)N[C@@H](CO)C(=O)NCC(=O)N[C@@H](CO)C(=O)N[C@@H](Cc1ccc(O)cc1)C(N)=O)[C@@H](C)O)[C@@H](C)O)[C@@H](C)O` ({C20 diacid-γGlu}-ASELSTAALGRLSAELHELATYPRTETGSGSY-NH2): the remaining at 1 µM in data set [1] stood at 100%. Moreover, the solubility at 18 h in [2], in data set [3], in [7], in data set [8], in data set [9] and in data set [10] was not below 200 µM each time. Moreover, the solubility at 18 h in data set [13] was not below 200 µM. Besides, the EC50 in [15] was 0.032 nM; in [5], 0.071 nM; in data set [11] it was 0.093 nM; in [14] it was 0.029 nM. Besides, the figures for the Activity in [4] and in data set [12] were 49% and 56%, respectively. For the same compound, the Time in data set [6] is more than 45 h.
Regarding `CC(C)C[C@H](NC(=O)CNC(=O)[C@H](CO)NC(=O)[C@H](C)NC(=O)CC[C@H](NC(=O)CCCCCCCCCCCCCCCCCCC(=O)O)C(=O)O)C(=O)N[C@@H](CO)C(=O)N[C@H](C(=O)N[C@@H](C)C(=O)N[C@H](C(=O)N[C@@H](CC(C)C)C(=O)NCC(=O)N[C@@H](CCCNC(=N)N)C(=O)N[C@@H](CC(C)C)C(=O)N[C@@H](CO)C(=O)N[C@@H](CCC(N)=O)C(=O)N[C@@H](CCC(=O)O)C(=O)N[C@@H](CC(C)C)C(=O)N[C@@H](Cc1cnc[nH]1)C(=O)N[C@@H](CCC(=O)O)C(=O)N[C@@H](CC(C)C)C(=O)N[C@@H](CCC(N)=O)C(=O)N[C@H](C(=O)N[C@@H](CC(C)C)C(=O)N[C@@H](CCC(N)=O)C(=O)N[C@H](C(=O)N[C@@H](Cc1ccc(O)cc1)C(=O)N1CCC[C@H]1C(=O)N[C@@H](CCCNC(=N)N)C(=O)N[C@H](C(=O)N[C@@H](CCC(=O)O)C(=O)N[C@H](C(=O)NCC(=O)N[C@@H](CO)C(=O)N[C@@H](CCC(N)=O)C(=O)N[C@H](C(=O)N[C@@H](Cc1ccc(O)cc1)C(N)=O)[C@@H](C)O)[C@@H](C)O)[C@@H](C)O)[C@@H](C)O)[C@@H](C)O)C(C)C)[C@@H](C)O` ({C20 diacid-γGlu}-ASGLSTAVLGRLSQELHELQTLQTYPRTETGSQTY-NH2), the remaining at 1 µM in data set [1] stood at 2%. The solubility at 18 h in data set [2], in data set [3], in data set [7], in data set [9], in [10] and in data set [13] was not below 200 µM each time. For the same compound, the EC50 in data set [15] is 0.054 nM; in data set [5], 0.099 nM; in [11], 0.185 nM; in [14], 0.045 nM. For the same compound, the Activity in data set [4] is given as 25%; in [12], 10%. In addition, the Time in data set [6] was determined as 8 h.

The values are drawn from ChEMBL document CHEMBL4420076, “Amylin and calcitonin receptor agonist” (2017).
